Test results published in US8614214B2, “Pyrazole amide compounds and uses thereof” (Sinochem Corporation, priority 2010, dated 2013).
Where two headings read alike, the source gives them in different places.

Columns and labels:
cucumber downy mildew [1] = assay: Greenhouse pot seedling assay, cucumber downy mildew; format: in vivo; details: for Control (%): comparative test, Table 18; for control of cucumber downy mildew: greenhouse
cucumber downy mildew [2] = assay: Persistence comparative test against cucumber downy mildew (greenhouse); format: in vivo
wheat powdery mildew = assay: Greenhouse pot seedling assay, wheat powdery mildew; format: in vivo; details: 400 ppm
corn rust = assay: Greenhouse pot seedling assay, corn rust; format: in vivo; details: for Control (%): comparative test, Table 20; for control of corn rust: greenhouse
rice blast [3] = format: cell-based
rice sheath blight = format: cell-based
mango anthracnose = format: cell-based
sigatoka = format: cell-based
[4] = test system: corn southern leaf blight; format: cell-based
banana anthracnose = format: cell-based
cucumber downy mildew [5] = assay: Field trial against cucumber downy mildew; format: in vivo; details: for Control (%) average: average of 3 replicates; for Control (%) I: replicate I; for Control (%) II: replicate II; for Control (%) III: replicate III
Method: The trial was carried out in a greenhouse in July 2011 in […] district, Shanxi Province. Before the treatment, the cucumber plants were at the beginning of infection. The trial method was based on the National Standard of the People's Republic of China-“Pesticide-Guidelines for The Field Efficacy Trials”. […] The Area of plot was 15 m^2, random arrangement and 3 times replication. The volume was about 600 L/hm^2, and water was as the control. Efficacy calculation method is as follows: [formula] [formula]

rice blast [6] = format: in vivo

Question: How did the “Control (%)” value (cucumber downy mildew [1]; 6.25 ppm) turn out when `CNC(=O)c1ccccc1NC(=O)COc1ccc(CNC(=O)c2c(Cl)c(C)nn2C)cc1` [Compound 15] was run?
Answer: The value was 44%.

Question: And the “Control (%)” value (cucumber downy mildew [1]; 12.5 ppm)?
Answer: The value was 66%.

Question: And the “Control (%)” value (cucumber downy mildew [1]; 25 ppm)?
Answer: Its value is 88%.

Question: What about the “control of cucumber downy mildew” value (cucumber downy mildew [1]; 25 ppm) of the same molecule?
Answer: The value was 100%.

Question: And the “Control (%)” value (cucumber downy mildew [1]; 50 ppm)?
Answer: The value was 96%.

Question: And the “control of cucumber downy mildew” value (cucumber downy mildew [1]; 50 ppm)?
Answer: Its value is 100%.

Question: What about the “Control (%)” value (cucumber downy mildew [1]; 100 ppm) of the same molecule?
Answer: Its value is 100%.

Question: And the “Biological activity in greenhouse, cucumber downy mildew” value (cucumber downy mildew [1]; 400 ppm, Table 21)?
Answer: The value was 100.

Question: And the “control of cucumber downy mildew” value (cucumber downy mildew [1]; 400 ppm)?
Answer: Its value is 100%.

Question: And the “Control (%)” value (cucumber downy mildew [2]; 25 ppm, inoculation 3 days after treatment)?
Answer: The value was 52%.

Question: What about the “Control (%)” value (cucumber downy mildew [2]; 25 ppm, inoculation 7 days after treatment) of the same molecule?
Answer: The value was 44%.

Question: What about the “Control (%)” value (cucumber downy mildew [2]; 50 ppm, inoculation 3 days after treatment) of the same molecule?
Answer: The value was 74%.

Question: And the “Control (%)” value (cucumber downy mildew [2]; 50 ppm, inoculation 7 days after treatment)?
Answer: The value was 62%.

Question: And the “Control (%)” value (cucumber downy mildew [2]; 100 ppm, inoculation 3 days after treatment)?
Answer: Its value is 96%.

Question: And the “Control (%)” value (cucumber downy mildew [2]; 100 ppm, inoculation 7 days after treatment)?
Answer: Its value is 70%.

Question: And the “Control (%)” value (cucumber downy mildew [2]; 200 ppm, inoculation 3 days after treatment)?
Answer: Its value is 100%.

Question: What about the “Control (%)” value (cucumber downy mildew [2]; 200 ppm, inoculation 7 days after treatment) of the same molecule?
Answer: The value was 74%.

Question: And the “Control (%)” value (cucumber downy mildew [2]; 400 ppm, inoculation 3 days after treatment)?
Answer: Its value is 100%.

Question: And the “Control (%)” value (cucumber downy mildew [2]; 400 ppm, inoculation 7 days after treatment)?
Answer: The value was 81%.

Question: And the “Biological activity in greenhouse, wheat powdery mildew” value (wheat powdery mildew; Table 21)?
Answer: The value was 100.

Question: And the “control of wheat powdery mildew” value (wheat powdery mildew; greenhouse)?
Answer: The value was 100%.

Question: What about the “Control (%)” value (corn rust; 3.13 ppm) of the same molecule?
Answer: The value was 20%.

Question: What about the “Control (%)” value (corn rust; 6.25 ppm) of the same molecule?
Answer: The value was 60%.

Question: What about the “Control (%)” value (corn rust; 12.5 ppm) of the same molecule?
Answer: Its value is 80%.

Question: What about the “Control (%)” value (corn rust; 25 ppm) of the same molecule?
Answer: The value was 95%.

Question: And the “control of corn rust” value (corn rust; 25 ppm)?
Answer: The value was 100%.

Question: And the “Control (%)” value (corn rust; 50 ppm)?
Answer: The value was 100%.

Question: What about the “Control (%)” value (corn rust; 100 ppm) of the same molecule?
Answer: Its value is 100%.

Question: And the “Biological activity in greenhouse, corn rust” value (corn rust; 400 ppm, Table 21)?
Answer: Its value is 100.

Question: What about the “control of corn rust” value (corn rust; 400 ppm) of the same molecule?
Answer: Its value is 100%.

Question: What about the “inhibition ratio on spore germination of rice blast” value (rice blast [3]; 0.3 ppm) of the same molecule?
Answer: Its value is 100%.

Question: What about the “inhibition ratio on spore germination of rice blast” value (rice blast [3]; 25 ppm) of the same molecule?
Answer: The value was 100%.

Question: And the “EC50 against rice sheath blight” value (rice sheath blight)?
Answer: The value was 0.799 ppm.

Question: What about the “EC50 against mango anthracnose” value (mango anthracnose) of the same molecule?
Answer: Its value is 1.518 ppm.

Question: And the EC50 against sigatoka (sigatoka)?
Answer: Its EC50 against sigatoka is 2.389 ppm.

Question: And the “EC50 against corn southern leaf blight” value [4]?
Answer: Its value is 0.035 ppm.

Question: And the “EC50 against banana anthracnose” value (banana anthracnose)?
Answer: Its value is 2.867 ppm.

Question: And the “Control (%) average” value (cucumber downy mildew [5]; 100 ppm)?
Answer: Its value is 52%.

Question: And the “Control (%) I” value (cucumber downy mildew [5]; 100 ppm)?
Answer: The value was 33%.

Question: And the “Control (%) II” value (cucumber downy mildew [5]; 100 ppm)?
Answer: The value was 53%.

Question: And the “Control (%) III” value (cucumber downy mildew [5]; 100 ppm)?
Answer: Its value is 69%.

Question: What about the “Control (%) average” value (cucumber downy mildew [5]; 200 ppm) of the same molecule?
Answer: Its value is 66%.

Question: And the “Control (%) I” value (cucumber downy mildew [5]; 200 ppm)?
Answer: Its value is 60%.

Question: And the “Control (%) II” value (cucumber downy mildew [5]; 200 ppm)?
Answer: Its value is 65%.

Question: And the “Control (%) III” value (cucumber downy mildew [5]; 200 ppm)?
Answer: Its value is 72%.

Question: And the “Control (%) average” value (cucumber downy mildew [5]; 400 ppm)?
Answer: Its value is 82%.

Question: What about the “Control (%) I” value (cucumber downy mildew [5]; 400 ppm) of the same molecule?
Answer: The value was 80%.

Question: And the “Control (%) II” value (cucumber downy mildew [5]; 400 ppm)?
Answer: The value was 81%.

Question: And the “Control (%) III” value (cucumber downy mildew [5]; 400 ppm)?
Answer: Its value is 86%.

Question: What about the “Control (%) I” value (rice blast [6]; 400 ppm) of the same molecule?
Answer: The value was 69%.

Question: And the “Control (%) II” value (rice blast [6]; 400 ppm)?
Answer: The value was 71%.

Question: What about the “Control (%) III” value (rice blast [6]; 400 ppm) of the same molecule?
Answer: Its value is 67%.

Question: What about the “Control (%) average” value (rice blast [6]; 400 ppm) of the same molecule?
Answer: The value was 69%.

Question: What about the “Control (%) I” value (rice blast [6]; 600 ppm) of the same molecule?
Answer: Its value is 77%.

Question: And the “Control (%) II” value (rice blast [6]; 600 ppm)?
Answer: Its value is 81%.

Question: What about the “Control (%) III” value (rice blast [6]; 600 ppm) of the same molecule?
Answer: Its value is 77%.

Question: What about the “Control (%) average” value (rice blast [6]; 600 ppm) of the same molecule?
Answer: Its value is 78%.

Question: What about the “Control (%) I” value (rice blast [6]; 800 ppm) of the same molecule?
Answer: Its value is 84%.

Question: And the “Control (%) II” value (rice blast [6]; 800 ppm)?
Answer: The value was 89%.

Question: What about the “Control (%) III” value (rice blast [6]; 800 ppm) of the same molecule?
Answer: Its value is 88%.

Question: And the “Control (%) average” value (rice blast [6]; 800 ppm)?
Answer: The value was 87%.
